Results published in article PMC11157767 (Molecular Cancer, 2024).
Several values for one entry are separate records, joined by “and”; a condition that tells them apart may be missing. Equal entries are not always repeated. Where two headings read alike, the source gives them in different places.

Tests used:
[1] = In vitro protein binding assay, culture media; assay type: in vitro ADME; details: read-out: unbound drug fraction, Culture Media, AVG
TRIM24-MET-r cells = test: 3-day dose-response assay, TRIM24-MET-r cells; assay type: cell-based; details: Homo sapiens
TRIM24-MET-i PDOX [2] = test: TRIM24-MET-i PDOX 4-arm trial capmatinib +/- RT (survival, BLI, body weight); assay type: in vivo, mouse
Protocol: (§1) All treatments started 18 days after transplantation. Radiotherapy was administered at 0.5 Gy per day, delivering 10 Gy total.
Treatment started on day 13.

RAD51 = test: Western blot of RAD51 in TRIM24-MET or TFG-MET cells, 24 hours; assay type: cell-based, human and mouse
Protocol: Error bars display standard error of mean, statistical significance was determined using t-test analysis. (****;p<0.0001, ***;p<0.001, **;p<0.01, *;p<0.05). […] Each dot represents an individual replicate. Error bars display standard error of the mean. Statistical significance was determined using a One-Way ANOVA followed by Tukey’s multiple comparisons test (*p<0.05, **p<0.01, ***p<0.001, ****p<0.0001). Lysate from lane 10 was excluded due to the different timepoint after RT

[3] = system: TRIM24-MET L97 human glioma cell lines; test: γH2AX immunofluorescence after 4 Gy irradiation, TRIM24-MET human glioma cells; assay type: cell-based; details: 1, 2, 3 and 4 hours following 4 Gy irradiation
Protocol: (§2) Error bars display standard error of mean, statistical significance was determined using t-test analysis. (****;p<0.0001, ***;p<0.001, **;p<0.01, *;p<0.05). […] Each dot represents an individual replicate. Error bars display standard error of the mean. Statistical significance was determined using a One-Way ANOVA followed by Tukey’s multiple comparisons test (*p<0.05, **p<0.01, ***p<0.001, ****p<0.0001).

TFG-MET cells = test: γH2AX immunofluorescence after 8Gy irradiation, TFG-MET cells; assay type: cell-based, mouse; details: various time points following 8Gy irradiation
Description: Error bars display standard error of mean, statistical significance determined using t-test analysis, *;p<0.05. Scale bar is 10µm.

Kap1 pS824 = test: Western blot of phosphorylated Kap1 (pS824) in TFG-MET allograft tumors; assay type: in vivo, mouse; details: capmatinib and RT
Protocol: as §2

[4] = system: cells isolated from murine tumors induced by overexpressing TFG-MET alone; details: without Trp53 knockout
TRIM24-MET-i PDOX [5] = details: for BLI signal, individual mice: PDX trial cap vs cabo
Protocol: as §1
Each line represents one mouse. The ends of lines indicate the onset of neurological symptoms and thereby the endpoints. Treatment started on day 13.

[6] = mNSCLC patients; cited from earlier work
[7] = In vitro protein binding assay, mouse plasma
[8] = In vitro protein binding assay, naive mouse brain tissue homogenate
MET-fusion pHGG = details: cited from earlier work
in vitro [9] = details: mouse, plasma
in vitro [10] = details: mouse, brain homogenate

CNC(=O)c1ccc(-c2cnc3ncc(Cc4ccc5ncccc5c4)n3n2)cc1F [Capmatinib]
fraction unbound [1]: 0.705
EC90 (TRIM24-MET-r cells; 72 h, TRIM24-MET-r, 3-day dose response, read-out: EC90 Total): 199 nM
EC90 (TRIM24-MET-r cells; TRIM24-MET-r, total value multiplied with unbound fraction in culture media, read-out: EC90 Unbound): 141 nM
mice with spinal metastasis after therapy was withdrawn (TRIM24-MET-i PDOX [2]; capmatinib + RT): one
tumor burden (TRIM24-MET-i PDOX [2]; capmatinib + RT (0.5 Gy per day, 10 Gy total)): profoundly and stably decreased tumor burden
disease course under monotherapy (TRIM24-MET-i PDOX [2]; capmatinib alone): stable disease in all treated animals
RAD51 protein level (RAD51): downregulation
percentage of cells with ≥20 γH2AX-foci vs DMSO [3]: significantly higher
percentage of cells with ≥10 γH2AX-foci vs DMSO (TFG-MET cells): significantly higher
phosphorylated Kap1 in tumors vs vehicle + RT (Kap1 pS824): significantly greater increase
inhibition in dose response assay [4]: potently inhibited
BLI signal, individual mice (TRIM24-MET-i PDOX [5]; day 7): 3.18E+07 and 1.72E+07 and 3.36E+07
BLI signal, individual mice (TRIM24-MET-i PDOX [5]; day 9): 7.47E+07 and 3.47E+07
BLI signal, individual mice (TRIM24-MET-i PDOX [5]; day 14): 5.84E+07 and 2.51E+07
BLI signal, individual mice (TRIM24-MET-i PDOX [5]; day 17): 2.44E+07 and 1.00E+07
BLI signal, individual mice (TRIM24-MET-i PDOX [5]; day 21): 1.66E+07 and 1.85E+07
BLI signal, individual mice (TRIM24-MET-i PDOX [5]; day 24): 1.50E+07 and 1.24E+07
BLI signal, individual mice (TRIM24-MET-i PDOX [5]; day 28): 1.39E+07 and 1.53E+07
BLI signal, individual mice (TRIM24-MET-i PDOX [5]; day 31): 7.80E+06 and 1.43E+07
BLI signal, individual mice (TRIM24-MET-i PDOX [5]; day 35): 9.55E+06 and 1.60E+07 and 7.43E+06
BLI signal, individual mice (TRIM24-MET-i PDOX [5]; day 38): 8.92E+06 and 1.56E+07 and 7.00E+06
BLI signal, individual mice (TRIM24-MET-i PDOX [5]; day 42): 7.91E+06 and 1.63E+07 and 5.51E+06
BLI signal, individual mice (TRIM24-MET-i PDOX [5]; day 45): 9.52E+06 and 1.30E+07 and 6.98E+06
BLI signal, individual mice (TRIM24-MET-i PDOX [5]; day 49): 7.93E+06 and 9.97E+06 and 5.88E+06
BLI signal, individual mice (TRIM24-MET-i PDOX [5]; day 52): 7.48E+06 and 8.25E+06 and 4.19E+06
BLI signal, individual mice (TRIM24-MET-i PDOX [5]; day 56): 8.25E+06 and 1.00E+07 and 5.09E+06
BLI signal, individual mice (TRIM24-MET-i PDOX [5]; day 59): 2.02E+06 and 8.98E+06 and 4.17E+06
BLI signal, individual mice (TRIM24-MET-i PDOX [5]; day 63): 5.64E+06 and 9.13E+06 and 4.23E+06
BLI signal, individual mice (TRIM24-MET-i PDOX [5]; day 66): 6.00E+06 and 8.25E+06 and 4.18E+06
BLI signal, individual mice (TRIM24-MET-i PDOX [5]; day 70): 1.53E+06 and 8.82E+06 and 4.89E+06
BLI signal, individual mice (TRIM24-MET-i PDOX [5]; day 73): 1.32E+06 and 6.23E+06 and 4.17E+06
BLI signal, individual mice (TRIM24-MET-i PDOX [5]; day 77): 4.79E+05 and 1.07E+07 and 4.65E+06
BLI signal, individual mice (TRIM24-MET-i PDOX [5]; day 80): 4.21E+05 and 1.01E+07 and 4.77E+06
BLI signal, individual mice (TRIM24-MET-i PDOX [5]; day 87): 5.96E+05 and 1.05E+07 and 4.96E+06
BLI signal, individual mice (TRIM24-MET-i PDOX [5]; day 94): 8.51E+05 and 7.79E+06
BLI signal, individual mice (TRIM24-MET-i PDOX [5]; day 101): 4.10E+05 and 7.68E+06
BLI signal, individual mice (TRIM24-MET-i PDOX [5]; day 108): 4.16E+05 and 7.10E+06
BLI signal, individual mice (TRIM24-MET-i PDOX [5]; day 115): 3.96E+05 and 8.39E+06
BLI signal, individual mice (TRIM24-MET-i PDOX [5]; day 122): 5.52E+05 and 6.96E+06
BLI signal, individual mice (TRIM24-MET-i PDOX [5]; day 129): 5.43E+05 and 7.67E+06
BLI signal, individual mice (TRIM24-MET-i PDOX [5]; day 134): 7.37E+05 and 1.29E+07
BLI signal, individual mice (TRIM24-MET-i PDOX [5]; day 142): 2.48E+05 and 8.31E+06
BLI signal, individual mice (TRIM24-MET-i PDOX [5]; day 147): 1.01E+05 and 6.09E+06
BLI signal, individual mice (TRIM24-MET-i PDOX [5]; day 154): 7.12E+04 and 6.90E+06
BLI signal, individual mice (TRIM24-MET-i PDOX [5]; day 161): 9.26E+04 and 5.65E+06
BLI signal, individual mice (TRIM24-MET-i PDOX [5]; day 175): 1.61E+05 and 5.72E+06
BLI signal, individual mice (TRIM24-MET-i PDOX [5]; day 182): 4.78E+04 and 7.21E+06
BLI signal, individual mice (TRIM24-MET-i PDOX [5]; day 190): 3.12E+05 and 5.75E+06
BLI signal, individual mice (TRIM24-MET-i PDOX [5]; day 196): 6.90E+05 and 4.81E+06
BLI signal, individual mice (TRIM24-MET-i PDOX [5]; day 203): 1.41E+06 and 5.43E+06
BLI signal, individual mice (TRIM24-MET-i PDOX [5]; day 210): 4.51E+07 and 1.12E+07
BLI signal, individual mice (TRIM24-MET-i PDOX [5]; day 217): 1.20E+07
BLI signal, individual mice (TRIM24-MET-i PDOX [5]; day 224): 3.17E+07
BLI signal, individual mice (TRIM24-MET-i PDOX [5]; day 231): 3.11E+08
BLI signal, individual mice (TRIM24-MET-i PDOX [5]; day 238): 8.31E+08
survival over the 19-week treatment period (TRIM24-MET-i PDOX [5]; capmatinib BID, 8 mice): all mice surviving
mice with initial tumor regression (luciferase imaging) (TRIM24-MET-i PDOX [5]; capmatinib monotherapy): two out of eight
mice with stable disease (BLI) (TRIM24-MET-i PDOX [5]; capmatinib monotherapy): six out of eight
mice with tumor relapse within 6 months after treatment ceased (TRIM24-MET-i PDOX [5]; capmatinib, treated 133 days): 7 of 8
discontinuation due to fatigue [6]: 1.5%
discontinuation due to peripheral edema [6]: 1.8%
discontinuation due to pneumonitis [6]: 1.8%
patients permanently discontinued due to an adverse reaction [6]: 16%
fraction unbound [7]: 0.0502
fraction unbound [8]: 0.113

C[C@@H](Oc1cc(-c2cnn(C3CCNCC3)c2)cnc1N)c1c(Cl)ccc(F)c1Cl [Crizotinib]
fraction unbound [1]: 0.617
EC50 (TRIM24-MET-r cells; 72 h, read-out: EC50 Total): 151 nM
EC90 (TRIM24-MET-r cells; 72 h, read-out: EC90 Total): 5670 nM
EC50 (TRIM24-MET-r cells; read-out: EC50 Unbound): 93 nM
EC90 (TRIM24-MET-r cells; read-out: EC90 Unbound): 3500 nM
RAD51 protein level (RAD51): downregulation
clinical response of one pHGG patient with MET fusion (MET-fusion pHGG): partial response with rapid tumor relapse
fraction unbound (in vitro [9]): 0.0223
fraction unbound (in vitro [10]): 0.0106
